Key:
[1] = Assay for determination of apparent permeability (Papp), bi-directional transport; format: in vitro ADME; conditions: pig, LLC-PK1; 1 μM test compound, t=3 h, average of A to B and B to A; read-out: Papp LLC-PK-1 cells
Protocol: Bi-directional transport was evaluated in LLC-PK1 cells in order to determine apparent permeability (Papp). LLC-PK1 cells can form a tight monolayer and therefore can be used to assess vectorial transport of compounds from basolateral to apical (B→A) and from apical to basolateral (A→B).
To determine Papp, LLC-PK1 cells were cultured in 96-well transwell culture plates (Millipore). Solutions containing the test compounds (1 μM) were prepared in Hank's Balanced Salt Solution with 10 mM HEPES. Substrate solution (150 μL) was added to either the apical (A) or the basolateral (B) compartment of the culture plate, and buffer (150 μL) was added to the compartment opposite to that containing the compound. At t=3 h, 50 μL samples were removed from both sides of monolayers dosed with test compound and placed in 96 well plates, scintillant (200 μL) or internal standard (100 μL labetolol 104) was added to the samples and concentration was determined by liquid scintillation counting in a MicroBeta Wallac Trilux scintillation counter (Perkin Elmer Life Sciences, Boston, Mass.) or by LCMS/MS (Applied Biosystems SCIEX API 5000 triple quadruple mass spectrometer). [^3H]Verapamil (1 μM) was used as the positive control. The experiment was performed in triplicate.
The apparent permeability, Papp, was calculated by the following formula for samples taken at t=3 h:
[formula] Where: Volume of Receptor Chamber was 0.15 mL; Area of membrane was 0.11 cm^2; the Initial Concentration is the sum of the concentration measured in the donor plus concentration measured in receiver compartments at t=3 h; Δ in Concentration is concentration in the receiver compartment at 3 h; and Δ in Time is the incubation time (3×60×60=10800 s). Papp was expressed as 10^−6 cm/s. The Papp (LLC-PK1 cells) are the average of the Papp for transport from A to B and Papp for transport from B to A at t=3 h: […]

[2] = molecular target: human O-GlcNAcase (Homo sapiens (Human), UniProt O60502); test: Assay for determination of Ki values for inhibition of O-GlcNAcase activity (fluorescence-based); format: biochemical; conditions: purified human O-GlcNAcase 0.7 nM, 2 mM 4-methylumbelliferyl N-acetyl-β-D-glucosaminide, pH 7.0, Cheng-Prusoff; read-out: Fluorescence-based hOGA Ki
Protocol: Experimental procedure for kinetic analyses: Enzymatic reactions were carried out in a reaction containing 50 mM NaH2PO4, 100 mM NaCl and 0.1% BSA (pH 7.0) using 2 mM 4-Methylumbelliferyl N-acetyl-β-D-glucosaminide dihydrate (Sigma M2133) dissolved in ddH2O, as a substrate. The amount of purified human O-GlcNAcase enzyme used in the reaction was 0.7 nM. Test compound of varying concentrations was added to the enzyme prior to initiation of the reaction. The reaction was performed at room temperature in a 96-well plate and was initiated with the addition of substrate. […] The slope of product production was determined for each concentration of compound tested and plotted, using standard curve fitting algorithms for sigmoidal dose response curves. The values for a four parameter logistic curve fit of the data were determined.

[3] = system: O-GlcNAcylated protein in rat PC-12 cells; test: Cell-based ELISA for cellular activity of O-GlcNAcase inhibitors (RL-2 antibody); conditions: 24 h treatment, increase in O-GlcNAcylated protein detected with RL-2 antibody
Source text: Inhibition of O-GlcNAcase, which removes O-GlcNAc from cellular proteins, results in an increase in the level of O-GlcNAcylated protein in cells. An increase in O-GlcNAcylated protein can be measured by an antibody, such as RL-2, that binds to O-GlcNAcylated protein. The amount of O-GleNAcylated protein:RL2 antibody interaction can be measured by enzyme linked immunosorbant assay (ELISA) procedures.
A variety of tissue culture cell lines, expressing endogenous levels of O-GlcNAcase, can be utilized; examples include rat PC-12, and human U-87, or SK-N-SH cells. In this assay,rat PC-12 cells were plated in 96-well plates with approximately 10,000 cells/well. Compounds to be tested were dissolved in DMSO, either 2 or 10 mM stock solution, and then diluted with DMSO and water in a two-step process using a Tecan workstation. […] To prepare a cell lysate, the media from compound treated cells was removed, the cells were washed once with phosphate buffered saline (PBS) and then lysed for 5 minutes at room temperature in 50 μL of Phosphosafe reagent (Novagen Inc, Madison, Wis.) with protease inhibitors and PMSF. The cell lysate was collected and transferred to a new plate, which was then either coated to assay plates directly or frozen −80° C. until used in the ELISA procedure. If desired, the total protein concentration of samples was determined using 20 μL of the sample using the BCA method.
The ELISA portion of the assay was performed in a black Maxisorp 96-well plate that was coated overnight at 4° C. with 100 μL/well of the cell lysate (1:10 dilution of the lysate with PBS containing protease inhibitors, phosphatase inhibitors, and PMSF). The following day the wells were washed 3 times with 300 μL/well of Wash buffer (Tris-buffered saline with 0.1% Tween 20). The wells were blocked with 100 μl/well Blocking buffer (Tris buffered saline w/0.05% Tween 20 and 2.5% Bovine serum albumin). Each well was then washed two times with 300 μL/well of wash buffer. […] The plate was sealed and incubated at 37° C. for 2 h with gentle shaking. The wells were then washed 3-times with 300 μL/well wash buffer. […] The plate was incubated for 60 min at 37° C. with gentle shaking. Each well was then washed 3-times with 300 μL/well wash buffer. The detection reagent was added, 100 μL/well of Amplex Ultra RED reagent (prepared by adding 30 μL of 10 mM Amplex Ultra Red stock solution to 10 mL PBS with 18 μL 3% hydrogen peroxide, H2O2). The detection reaction was incubated for 15 minutes at room temperature and then read with excitation at 530 nm and emission at 590 nm.
The amount of O-GlcNAcylated protein, as detected by the ELISA assay, was plotted for each concentration of test compound using standard curve fitting algorithms for sigmoidal dose response curves. The values for a four parameter logistic curve fit of the data were determined, with the inflection point of the curve being the potency value for the test compound.

Sequence of human O-GlcNAcase (O60502 whole entry): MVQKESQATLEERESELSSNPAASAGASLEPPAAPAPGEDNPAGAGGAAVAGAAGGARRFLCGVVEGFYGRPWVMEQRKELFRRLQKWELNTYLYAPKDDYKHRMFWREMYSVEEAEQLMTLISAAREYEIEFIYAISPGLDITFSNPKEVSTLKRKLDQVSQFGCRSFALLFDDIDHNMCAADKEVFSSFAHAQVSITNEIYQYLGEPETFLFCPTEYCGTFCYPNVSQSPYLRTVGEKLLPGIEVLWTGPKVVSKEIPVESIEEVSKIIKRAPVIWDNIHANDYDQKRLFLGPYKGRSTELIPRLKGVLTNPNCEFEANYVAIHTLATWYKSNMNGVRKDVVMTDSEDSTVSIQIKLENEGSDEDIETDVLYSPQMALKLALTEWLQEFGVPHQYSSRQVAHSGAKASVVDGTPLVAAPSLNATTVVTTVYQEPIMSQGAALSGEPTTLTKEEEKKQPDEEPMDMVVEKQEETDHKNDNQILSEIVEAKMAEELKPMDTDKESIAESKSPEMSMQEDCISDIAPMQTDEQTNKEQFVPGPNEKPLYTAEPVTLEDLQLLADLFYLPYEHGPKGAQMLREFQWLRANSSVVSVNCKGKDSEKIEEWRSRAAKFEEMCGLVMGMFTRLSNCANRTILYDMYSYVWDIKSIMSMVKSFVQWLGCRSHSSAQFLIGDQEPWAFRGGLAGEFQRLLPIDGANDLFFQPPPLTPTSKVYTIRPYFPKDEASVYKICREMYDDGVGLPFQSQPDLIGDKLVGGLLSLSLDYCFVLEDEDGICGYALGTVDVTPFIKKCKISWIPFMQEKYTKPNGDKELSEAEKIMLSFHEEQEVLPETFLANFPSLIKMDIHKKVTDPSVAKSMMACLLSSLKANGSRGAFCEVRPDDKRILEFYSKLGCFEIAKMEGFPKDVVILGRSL

SMILES | Papp at 3 h, 1 μM [1] | Ki [2] | EC50 [3]
CNC1=N[C@@H]2C[C@H](O)[C@@H](C(F)F)O[C@@H]2S1 [Example 27, (3aR,5S,6S,7aR)-5-(difluoromethyl)-2-(methylamino)-5,6,7,7a-tetrahydro-3aH-pyrano[3,2-d]thiazol-6-ol] | 24 ×10⁻⁶ cm/s | 28 nM | –
CN(C)C1=N[C@@H]2[C@@H](O)[C@H](O)[C@@H](C(F)F)O[C@@H]2S1 [Example 20, (3aR,5S,6S,7R,7aR)-5-(difluoromethyl)-2-(dimethylamino)-5,6,7,7a-tetrahydro-3aH-pyrano[3,2-d]thiazole-6,7-diol] | 13.7 ×10⁻⁶ cm/s | 1.4 nM | 6 nM
CNC1=N[C@@H]2[C@@H](O)[C@H](O)[C@@H](CF)O[C@@H]2S1 [Example 17, (3aR,5S,6S,7R,7aR)-5-(fluoromethyl)-2-(methylamino)-5,6,7,7a-tetrahydro-3aH-pyrano[3,2-d]thiazole-6,7-diol] | 7.1 ×10⁻⁶ cm/s | 0.5 nM | 34 nM
CCNC1=N[C@@H]2[C@@H](O)[C@H](O)[C@@H](C(F)F)O[C@@H]2S1 [Example 19, (3aR,5S,6S,7R,7aR)-5-(difluoromethyl)-2-(ethylamino)-5,6,7,7a-tetrahydro-3aH-pyrano[3,2-d]thiazole-6,7-diol] | 6 ×10⁻⁶ cm/s | 5.7 nM | 53 nM
CN(C)C1=N[C@@H]2[C@@H](O)[C@H](O)[C@@H](CO)O[C@@H]2S1 [(3aR,5R,6S,7R,7aR)-2-(dimethylamino)-5-(hydroxymethyl)-5,6,7,7a-tetrahydro-3aH-pyrano[3,2-d]thiazole-6,7-diol, reference compound] | < 1 ×10⁻⁶ cm/s | 0.3 nM | 10 nM
CCNC1=N[C@@H]2C[C@H](O)[C@@H](CO)O[C@@H]2S1 [Example 2, (3aR,5R,6S,7aR)-2-(ethylamino)-5-(hydroxymethyl)-5,6,7,7a-tetrahydro-3aH-pyrano[3,2-d]thiazol-6-ol] | 3.8 ×10⁻⁶ cm/s | – | –
CCNC1=N[C@@H]2[C@@H](O)[C@@H](O)[C@@H](C(F)F)O[C@@H]2S1 [Example 29, (3aR,5S,6R,7R,7aR)-5-(difluoromethyl)-2-(ethylamino)-5,6,7,7a-tetrahydro-3aH-pyrano[3,2-d]thiazole-6,7-diol] | – | 164 nM | –
CNC1=N[C@@H]2[C@@H](F)[C@H](O)[C@@H](CO)O[C@@H]2S1 [Example 9, (3aR,5R,6R,7R,7aR)-7-fluoro-5-(hydroxymethyl)-2-(methylamino)-5,6,7,7a-tetrahydro-3aH-pyrano[3,2-d]thiazol-6-ol] | – | 1.3 nM | 307 nM
CCNC1=N[C@@H]2[C@@H](O)[C@H](O)[C@@H](CO)O[C@@H]2S1 [(3aR,5R,6S,7R,7aR)-2-(ethylamino)-5-(hydroxymethyl)-5,6,7,7a-tetrahydro-3aH-pyrano[3,2-d]thiazole-6,7-diol, reference compound] | < 1 ×10⁻⁶ cm/s | – | –
CCNC1=N[C@@H]2[C@@H](O)[C@H](O)[C@@H](C)O[C@@H]2S1 [Example 1, (3aR,5R,6S,7R,7aR)-2-(ethylamino)-5-methyl-5,6,7,7a-tetrahydro-3aH-pyrano[3,2-d]thiazole-6,7-diol] | – | 70 nM | –
CNC1=N[C@@H]2[C@H](F)[C@H](O)[C@@H](C(F)F)O[C@@H]2S1 [Example 33, (3aR,5S,6R,7S,7aR)-5-(difluoromethyl)-7-fluoro-2-(methylamino)-5,6,7,7a-tetrahydro-3aH-pyrano[3,2-d]thiazol-6-ol] | 20.1 ×10⁻⁶ cm/s | 13 nM | –
